{"source": "the supplement of paper PMC10307832", "test_in_all_cases": "relative viability (nuclei count vs DMSO), 5 days (fraction); higher = more cells survive", "key": {"Sulindac + Palbociclib": {"compound": "CC1=C(CC(=O)O)c2cc(F)ccc2/C1=C\\c1ccc([S+](C)[O-])cc1 [Sulindac] + CC(=O)c1c(C)c2cnc(Nc3ccc(N4CCNCC4)cn3)nc2n(C2CCCC2)c1=O [Palbociclib] (partner 0.5 µM)", "in_short": "(§1)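 Lung cancer cell lines were pin-tool dosed in 1536-well plates on the day after seeding, with either a lone drug or a fixed anchor-drug dose plus five library-drug doses (not always all listed) in √10 steps. Nuclei were counted on 4× images after 5 days. Relative viability is the ratio of treated-well to vehicle-well nuclei counts, with each value a median of duplicate plates.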"}, "Sulindac + Luminespib": {"compound": "CC1=C(CC(=O)O)c2cc(F)ccc2/C1=C\\c1ccc([S+](C)[O-])cc1 [Sulindac] + CCNC(=O)c1noc(-c2cc(C(C)C)c(O)cc2O)c1-c1ccc(CN2CCOCC2)cc1 [Luminespib] (partner 0.01 µM)", "in_short": "as §1"}, "[1]": {"compound": "O=c1[nH]cc(F)c(=O)[nH]1 [5-Fluorouracil] + C[C@@H](Oc1cc(-c2cnn(C3CCNCC3)c2)cnc1N)c1c(Cl)ccc(F)c1Cl [Crizotinib] (partner 1 µM)", "in_short": "as §1"}, "[2]": {"compound": "CN[C@@H]1C[C@H]2O[C@@](C)([C@@H]1OC)n1c3ccccc3c3c4c(c5c6ccccc6n2c5c31)C(=O)NC4 [Staurosporine] + Cc1nc(NC(=O)N2CCC[C@H]2C(N)=O)sc1-c1ccnc(C(C)(C)C(F)(F)F)c1 [Alpelisib] (partner 2 µM)", "in_short": "as §1"}}, "data": [{"cell line": "UMC-11", "values": [{"measurement": "relative viability", "setting": "Sulindac + Palbociclib; first compound 0.08 µM", "value": 0.304}, {"measurement": "relative viability", "setting": "Sulindac + Palbociclib; first compound 0.253 µM", "value": 0.333}, {"measurement": "relative viability", "setting": "Sulindac + Palbociclib; first compound 0.8 µM", "value": 0.318}, {"measurement": "relative viability", "setting": "Sulindac + Palbociclib; first compound 2.53 µM", "value": 0.328}, {"measurement": "relative viability", "setting": "Sulindac + Palbociclib; first compound 8 µM", "value": 0.364}, {"measurement": "relative viability", "setting": "Sulindac + Luminespib; first compound 0.08 µM", "value": 1.27}, {"measurement": "relative viability", "setting": "Sulindac + Luminespib; first compound 0.253 µM", "value": 1.12}, {"measurement": "relative viability", "setting": "Sulindac + Luminespib; first compound 0.8 µM", "value": 0.717}, {"measurement": "relative viability", "setting": "Sulindac + Luminespib; first compound 2.53 µM", "value": 1.01}, {"measurement": "relative viability", "setting": "Sulindac + Luminespib; first compound 8 µM", "value": 1.13}, {"measurement": "relative viability", "setting": "[1]; first compound 0.02 µM", "value": 0.52}, {"measurement": "relative viability", "setting": "[1]; first compound 0.2 µM", "value": 0.441}, {"measurement": "relative viability", "setting": "[1]; first compound 0.6325 µM", "value": 0.303}, {"measurement": "relative viability", "setting": "[1]; first compound 2 µM", "value": 0.232}, {"measurement": "relative viability", "setting": "[2]; first compound 0.005 µM", "value": 0.882}, {"measurement": "relative viability", "setting": "[2]; first compound 0.01581 µM", "value": 0.427}, {"measurement": "relative viability", "setting": "[2]; first compound 0.05 µM", "value": 0.461}, {"measurement": "relative viability", "setting": "[2]; first compound 0.1581 µM", "value": 0.145}, {"measurement": "relative viability", "setting": "[2]; first compound 0.5 µM", "value": 0.0643}]}]}
